{
  "source": "patent US10485584B2",
  "about": "“Supplement for cultivation of mammalian embryos” (Lekarska fakulta v Plzni, Univerzita Karlova (Faculty of …, priority 2017, dated 2019)",
  "assay_type_in_all_cases": "cell-based",
  "key": {"[1]": {"tested_on": "porcine oocytes and zygotes", "assay": "IVF results after 22 hr IVC (penetration rate, paternal pronucleus, monospermic fertilization)", "description": "(§1) Porcine ovaries were obtained from 6- to 8-month-old non-cycling gilts (a crossbreed of Landrace x Large White) at the local slaughterhouse (Jatky Plzen a.s., Plzen, Czech Republic) and transported to laboratory at 39° C. Cumulus-oocyte complexes (COCs) were collected from ovarian follicles with a diameter of 2-5 mm by aspiration with a 20-gauge needle and handled in HEPES-buffered Tyrode lactate medium containing 0.01% (w/v) polyvinyl alcohol (TL-HEPES-PVA). Only fully grown oocytes with evenly dense cytoplasm, surrounded by compact cumuli, were selected for IVM and washed in maturation medium. The medium used for IVM was modified tissue culture medium (mTCM) 199 (Gibco, Life Technologies, UK) supplemented with 0.1% PVA, 3.05 mM D-glucose, 0.91 mM sodium pyruvate, […], 0.5 μg·mL^−1 LH (Sigma-Aldrich, USA), 0.5 μg·mL^−1 FSH (Sigma), 10 ng·mL^−1 epidermal growth factor (EGF; Sigma), 10% porcine follicular fluid, 75 μg·mL^−1 penicillin G and 50 μg·mL^−1 streptomycin. After 22 h of culture, the COCs were cultured in TCM199 without LH and FSH for an additional 22 h. The COCs were cultured in 500 μL of the medium covered by mineral oil in a four-well Petri dish (Nunc, Denmark), at 39° C. and 5% CO2 in air (Abeydeera et al. Theriogenology 50:747-756, 1998).\n(§2) After 44 h of IVM, cumulus cells were removed with 0.1% hyaluronidase in TL-HEPES-PVA and the metaphase II (MII) oocytes with extruded first polar body were selected for IVF. The oocytes were washed three-times with modified Tris-buffered medium (mTBM; Abeydeera et al. Theriogenology 50:747-756, 1998) with 0.2% bovine serum albumin (BSA; A7888; Sigma) and placed into 100 μL drops of mTBM, covered with mineral oil in a 35 mm Petri dish. The dishes were allowed to equilibrate at 38.5° C. and 5% CO2 for 30 min before spermatozoa were added for fertilization. Spermatozoa were prepared as follows: 1 mL liquid semen preserved in BTS-based extender was washed twice in phosphate buffered saline (PBS) with 0.1% PVA (PBS-PVA) at 1500 rpm for 5 min. The last wash was supplemented with MitoTracker CMTRos (400 nM; M7510, Invitrogen) for 10 min at 39° C., used to tag sperm mitochondria that associate with the paternal pronucleus inside the fertilized oocytes. Labeled spermatozoa were resuspended in mTBM ([…]) and 1 μL of this sperm suspension was added to the medium containing the oocytes to give a final sperm concentration of 2.5 or 5×10^5 spermatozoa mL^−1. Oocytes were co-incubated with spermatozoa for 5 to 6 h at 38.5° C. and 5% CO2 in air. Thereafter, oocytes were washed and transferred into 100 μL PZM3 medium (Yoshioka et al. Biol Reprod 66:112-119, 2002) containing 0.4% BSA (A6003; Sigma) for further culture for 22 h. Simultaneously, presumed zygotes were cultured in 500 μL of PZM3 medium for 144 hrs to reach blastocyst stage. PZM3 was supplemented with the object of invention, i.e. N-benzyl-3,5-dicarbethoxy-4-phenyl-1,4-dihydropyridine, diluted in DMSO. Vehicle control contained DMSO only in equal concentration (0.1%). Tested concentrations of the compound are 1.5 and 3 μM, based on preliminary experiments evaluating the range 0.3-30 μM (see Table 1).\n(§3) Within the imaging of 22 h zygotes, an assessment of penetration rate, creation of paternal pronucleus/pronuclei and monospermic fertilization was performed. Embryo cleavage was assessed by microscopy at 144 h of IVC. After 144 h of IVC, embryos were fixed in 2% formaldehyde for 40 min at room temperature (RT), washed three times with PBS, permeabilized with PBS-Triton X-100 for 30 min, and stained with 2.5 μg/mL DAPI (DNA staining; Molecular Probes, Eugene, Oreg., USA) for 40 min. Embryo cleavage, blastocyst formation, and cell number per blastocyst were assessed under an Eclipse Ci fluorescence microscope (Nikon Co., Tokyo, Japan).\n(§4) Data are presented as the mean±S.E.M. of at least three independent experiments. […]"}, "porcine embryos": {"tested_on": "porcine embryos", "assay": "Embryonic development and blastocyst formation after 144 hr IVC", "description": "as §1, §2, §3, §4"}, "[2]": {"tested_on": "H3K9me2/3 and H3K9ac in pronuclear chromatin of porcine zygotes", "assay": "Zygote quality: methylation and acetylation of histone H3 on lysine K9 in pronuclear chromatin after IVF", "conditions": "related to untreated vehicle, DMSO = 1, preliminary data", "description": "as §2"}, "[3]": {"conditions": "3.0 μM, 22 hr IVC, calculated from penetrated oocytes"}},
  "note": "Marks after values point to notes of the source that are not given here.",
  "data": [
    {"molecule": "CCOC(=O)C1=CN(Cc2ccccc2)C=C(C(=O)OCC)C1c1ccccc1", "note": "[N-benzyl-3,5-dicarbethoxy-4-phenyl-1,4-dihydropyridine]", "values": [
      {"measurement": "penetrated oocytes (mean % ± SEM)", "setting": "[1]; 3.0 μM, 22 hr IVC", "result": 42.8, "unit": "%"},
      {"measurement": "No. of monospermic fertilization", "setting": "[1]; [3]", "result": 39},
      {"measurement": "No. of oocyte with PPN", "setting": "[1]; [3]", "result": 76},
      {"measurement": "monospermic fertilization (mean % ± SEM)", "setting": "[1]; [3]", "result": "42.4 ± 10.4", "unit": "%"},
      {"measurement": "oocyte with PPN (mean % ± SEM)", "setting": "[1]; [3]", "result": "82.6 ± 6.7", "unit": "%"},
      {"measurement": "No. of penetrated oocytes", "setting": "[1]; 3.0 μM, 22 hr IVC, of 215 oocytes", "result": 92},
      {"measurement": "polyspermic fertilization", "setting": "[1]; in the presence of compound, versus DMSO vehicle", "result": "higher polyspermic fertilization"},
      {"measurement": "Mean cell No. per blastocyst (mean ± SEM)", "setting": "porcine embryos; 1.5 μM", "result": "32.7 ± 2.5^a"},
      {"measurement": "No. of blastocysts", "setting": "porcine embryos; 1.5 μM", "result": 10},
      {"measurement": "No. of cleaved oocytes", "setting": "porcine embryos; 1.5 μM", "result": 47},
      {"measurement": "blastocysts (mean % ± SEM)", "setting": "porcine embryos; 1.5 μM", "result": "14.5 ± 7.2", "unit": "%"},
      {"measurement": "cleaved oocytes (mean % ± SEM)", "setting": "porcine embryos; 1.5 μM", "result": "70.2 ± 7.3", "unit": "%"},
      {"measurement": "Mean cell No. per blastocyst (mean ± SEM)", "setting": "porcine embryos; 3 μM", "result": "38.4 ± 4.2^a"},
      {"measurement": "No. of blastocysts", "setting": "porcine embryos; 3 μM", "result": 18},
      {"measurement": "No. of cleaved oocytes", "setting": "porcine embryos; 3 μM", "result": 44},
      {"measurement": "blastocysts (mean % ± SEM)", "setting": "porcine embryos; 3 μM", "result": "32.9 ± 8.1", "unit": "%"},
      {"measurement": "cleaved oocytes (mean % ± SEM)", "setting": "porcine embryos; 3 μM", "result": "62.7 ± 7.1", "unit": "%"},
      {"measurement": "efficiency compared with naturally occurring polyphenols (resveratrol)", "setting": "porcine embryos; comparison with resveratrol", "result": "even more efficient than naturally occurring polyphenols"},
      {"measurement": "H3K9ac", "setting": "[2]; 0.3 μM", "result": 0.61},
      {"measurement": "H3K9me2/3", "setting": "[2]; 0.3 μM", "result": 2.72},
      {"measurement": "H3K9ac", "setting": "[2]; 3.0 μM", "result": 0.63},
      {"measurement": "H3K9me2/3", "setting": "[2]; 3.0 μM", "result": 1.64},
      {"measurement": "H3K9ac", "setting": "[2]; 30 μM", "result": 1.36},
      {"measurement": "H3K9me2/3", "setting": "[2]; 30 μM", "result": 0.76}
    ]},
    {"molecule": "Oc1ccc(C=Cc2cc(O)cc(O)c2)cc1", "note": "[Resveratrol, reference compound]", "values": [
      {"measurement": "Mean cell No. per blastocyst (mean ± SEM)", "setting": "porcine embryos; 3 μM", "result": "39.3 ± 11.3^a"},
      {"measurement": "No. of blastocysts", "setting": "porcine embryos; 3 μM", "result": 4},
      {"measurement": "No. of cleaved oocytes", "setting": "porcine embryos; 3 μM", "result": 47},
      {"measurement": "blastocysts (mean % ± SEM)", "setting": "porcine embryos; 3 μM", "result": "6.2 ± 2.8", "unit": "%"},
      {"measurement": "cleaved oocytes (mean % ± SEM)", "setting": "porcine embryos; 3 μM", "result": "67.7 ± 10.6", "unit": "%"}
    ]}
  ]
}
